One series addresses T1, hGIPR (Homo sapiens, UniProt P48546).
T1 construct: expressed in transfected cells; host or cells: CHO CRE-luciferase reporter cells
T1 sequence (P48546 22-466): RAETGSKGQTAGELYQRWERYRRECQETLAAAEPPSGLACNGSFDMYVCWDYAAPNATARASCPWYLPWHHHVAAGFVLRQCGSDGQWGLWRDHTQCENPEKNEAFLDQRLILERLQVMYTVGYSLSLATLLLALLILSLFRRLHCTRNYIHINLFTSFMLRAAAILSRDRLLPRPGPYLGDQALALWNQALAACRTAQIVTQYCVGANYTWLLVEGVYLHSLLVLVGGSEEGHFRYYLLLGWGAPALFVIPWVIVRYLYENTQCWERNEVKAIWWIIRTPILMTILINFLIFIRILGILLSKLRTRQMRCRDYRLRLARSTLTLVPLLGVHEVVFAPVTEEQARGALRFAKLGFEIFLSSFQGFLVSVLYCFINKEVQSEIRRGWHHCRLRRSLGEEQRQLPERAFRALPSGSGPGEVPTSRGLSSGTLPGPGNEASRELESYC
Put plainly: hGIPR CreLuc assay in 0.5% and 100% plasma (CHO CRE-luciferase reporter cells). The class given is cell-based. The settings on record: 0.5% human plasma. For orientation: In a reporter assay the amount or activity of a reporter protein is the signal.

Series [1] can be described thus: Solubility in 0.1 M phosphate buffer at pH 7. The class given is physicochemical. Conditions: 0.1 M phosphate buffer at pH 7, 10 mg/mL final peptide concentration, shaking 2 hours at room temperature, peptides as TFA-salts; measured sample pH 6.5-7.0.

Read-outs that look alike come from different tables or passages of the source.

Broadly, the solubility is how much of the substance goes into solution per volume.

As for `CC[C@H](C)[C@H](NC(=O)[C@H](CC(C)C)NC(=O)[C@H](Cc1c[nH]cn1)NC(=O)[C@H](CCCNC(=N)N)NC(=O)[C@@H](NC(=O)[C@H](Cc1ccccc1)NC(=O)[C@H](C)NC(=O)C(C)(C)NC(=O)[C@H](CCC(N)=O)NC(=O)[C@H](C)NC(=O)[C@H](CCC(N)=O)NC(=O)[C@H](CCCCN)NC(=O)[C@H](CCC(=O)O)NC(=O)[C@H](CC(C)C)NC(=O)C(C)(C)NC(=O)[C@@H](NC(=O)[C@H](CO)NC(=O)[C@H](Cc1ccc(O)cc1)NC(=O)[C@H](CC(=O)O)NC(=O)[C@H](CO)NC(=O)[C@@H](NC(=O)[C@H](Cc1ccccc1)NC(=O)[C@@H](NC(=O)CNC(=O)[C@H](CCC(=O)O)NC(=O)C(C)(C)NC(=O)[C@@H](N)Cc1ccc(O)cc1)[C@@H](C)O)[C@@H](C)O)[C@@H](C)CC)C(C)C)C(=O)N[C@@H](CC(N)=O)C(=O)N[C@@H](CCCCNC(=O)[C@@H](N)CCCCNC(=O)CC[C@H](NC(=O)CC[C@H](NC(=O)CC[C@H](NC(=O)CC[C@H](NC(=O)CC[C@H](NC(=O)CC[C@H](NC(=O)CCCCCCCCCCCCCCCCCCC(=O)O)C(=O)O)C(=O)O)C(=O)O)C(=O)O)C(=O)O)C(=O)O)C(=O)N[C@@H](CC(C)C)C(=O)N[C@H](C(=O)N[C@@H](CCCNC(=N)N)C(=O)N[C@@H](CCC(N)=O)C(=O)N[C@@H](CCCNC(=N)N)C(=O)N[C@@H](Cc1ccc(O)cc1)C(N)=O)[C@@H](C)O` [Compound 27, Y-Aib-E-G-T-F-T-S-D-Y-S-I-Aib-L-E-K-Q-A-Q-Aib-A-F-V-R-H-L-I-N-K(1,3)-L-T-R-Q-R-Y-NH2.C20DA-gGlu-gGlu-gGlu-gGlu-gGlu-gGlu-eLys(1,2)], on hGIPR (read-out: hGIPR 0.5% hP), the EC50 was 0.6 nM. Besides, the solubility at 2 h in series [1] was 10000 µg/mL.

Turning to `CC[C@H](C)[C@H](NC(=O)[C@H](CC(C)C)NC(=O)[C@H](Cc1c[nH]cn1)NC(=O)[C@H](CCCNC(=N)N)NC(=O)[C@@H](NC(=O)[C@H](Cc1ccccc1)NC(=O)[C@H](C)NC(=O)C(C)(C)NC(=O)[C@H](CCC(N)=O)NC(=O)[C@H](C)NC(=O)[C@H](CCC(N)=O)NC(=O)[C@H](CCCCN)NC(=O)[C@H](CCC(=O)O)NC(=O)[C@H](CC(C)C)NC(=O)C(C)(C)NC(=O)[C@@H](NC(=O)[C@H](CO)NC(=O)[C@H](Cc1ccc(O)cc1)NC(=O)[C@H](CC(=O)O)NC(=O)[C@H](CO)NC(=O)[C@@H](NC(=O)[C@H](Cc1ccccc1)NC(=O)[C@@H](NC(=O)CNC(=O)[C@H](CCC(=O)O)NC(=O)C(C)(C)NC(=O)[C@@H](N)Cc1ccc(O)cc1)[C@@H](C)O)[C@@H](C)O)[C@@H](C)CC)C(C)C)C(=O)N[C@@H](CC(N)=O)C(=O)N[C@@H](CCCCNC(=O)[C@@H](N)CCCCNC(=O)CC[C@H](NC(=O)CC[C@H](NC(=O)CC[C@H](NC(=O)CC[C@H](NC(=O)CC[C@H](NC(=O)CC[C@H](NC(=O)CC[C@H](NC(=O)CCCCCCCCCCCCCCCCCCC(=O)O)C(=O)O)C(=O)O)C(=O)O)C(=O)O)C(=O)O)C(=O)O)C(=O)O)C(=O)NC(C)(C)C(=O)N[C@H](C(=O)N[C@@H](CCCNC(=N)N)C(=O)N[C@@H](CCC(N)=O)C(=O)N[C@@H](CCCNC(=N)N)C(=O)N[C@@H](Cc1ccc(O)cc1)C(N)=O)[C@@H](C)O` [Compound 35, Y-Aib-E-G-T-F-T-S-D-Y-S-I-Aib-L-E-K-Q-A-Q-Aib-A-F-V-R-H-L-I-N-K(1,3)-Aib-T-R-Q-R-Y-NH2.C20DA-gGlu-gGlu-gGlu-gGlu-gGlu-gGlu-gGlu-eLys(1,2)], at hGIPR (read-out: hGIPR 0.5% hP), the EC50 was 0.7 nM. Besides, in series [1], the solubility at 2 h is 5200 µg/mL.

For the compound `CC[C@H](C)[C@H](NC(=O)[C@H](CC(C)C)NC(=O)[C@H](Cc1c[nH]cn1)NC(=O)[C@H](CCCNC(=N)N)NC(=O)[C@@H](NC(=O)[C@H](Cc1ccccc1)NC(=O)[C@H](C)NC(=O)C(C)(C)NC(=O)[C@H](CCC(N)=O)NC(=O)[C@H](C)NC(=O)[C@H](CCC(N)=O)NC(=O)[C@H](CCCCN)NC(=O)[C@H](CCC(=O)O)NC(=O)[C@H](CC(C)C)NC(=O)C(C)(C)NC(=O)[C@@H](NC(=O)[C@H](CO)NC(=O)[C@H](Cc1ccc(O)cc1)NC(=O)[C@H](CC(=O)O)NC(=O)[C@H](CO)NC(=O)[C@@H](NC(=O)[C@H](Cc1ccccc1)NC(=O)[C@@H](NC(=O)CNC(=O)[C@H](CCC(=O)O)NC(=O)C(C)(C)NC(=O)[C@@H](N)Cc1ccc(O)cc1)[C@@H](C)O)[C@@H](C)O)[C@@H](C)CC)C(C)C)C(=O)N[C@@H](CC(N)=O)C(=O)N[C@@H](CCCCNC(=O)[C@@H](N)CCNC(=O)CC[C@H](NC(=O)CC[C@H](NC(=O)CC[C@H](NC(=O)CC[C@H](NC(=O)CC[C@H](NC(=O)CC[C@H](NC(=O)CCCCCCCCCCCCCCCCCCC(=O)O)C(=O)O)C(=O)O)C(=O)O)C(=O)O)C(=O)O)C(=O)O)C(=O)NC(C)(C)C(=O)N[C@H](C(=O)N[C@@H](CCCNC(=N)N)C(=O)N[C@@H](CCC(N)=O)C(=O)N[C@@H](CCCNC(=N)N)C(=O)N[C@@H](Cc1ccc(O)cc1)C(N)=O)[C@@H](C)O` [Compound 46, Y-Aib-E-G-T-F-T-S-D-Y-S-I-Aib-L-E-K-Q-A-Q-Aib-A-F-V-R-H-L-I-N-K(1,3)-Aib-T-R-Q-R-Y-NH2.C20DA-gGlu-gGlu-gGlu-gGlu-gGlu-gGlu-gDab(1,2)], at hGIPR (read-out: hGIPR 0.5% hP), the EC50 worked out at 0.8 nM. In addition, the solubility at 2 h in series [1] came out at 4200 µg/mL.

In the case of `CC[C@H](C)[C@H](NC(=O)[C@H](CC(C)C)NC(=O)[C@H](Cc1c[nH]cn1)NC(=O)[C@H](CCCNC(=N)N)NC(=O)[C@@H](NC(=O)[C@H](Cc1ccccc1)NC(=O)[C@H](C)NC(=O)C(C)(C)NC(=O)[C@H](CCC(N)=O)NC(=O)[C@H](C)NC(=O)[C@H](CCC(N)=O)NC(=O)[C@H](CCCCN)NC(=O)[C@H](CCC(=O)O)NC(=O)[C@H](CC(C)C)NC(=O)C(C)(C)NC(=O)[C@@H](NC(=O)[C@H](CO)NC(=O)[C@H](CC(C)C)NC(=O)[C@H](CC(=O)O)NC(=O)[C@H](CO)NC(=O)[C@@H](NC(=O)[C@H](Cc1ccccc1)NC(=O)[C@@H](NC(=O)CNC(=O)[C@H](CCC(=O)O)NC(=O)C(C)(C)NC(=O)[C@@H](N)Cc1ccc(O)cc1)[C@@H](C)O)[C@@H](C)O)[C@@H](C)CC)C(C)C)C(=O)N[C@@H](CC(N)=O)C(=O)N[C@@H](CCCCNC(=O)CC[C@H](NC(=O)CC[C@H](NC(=O)CC[C@H](NC(=O)CC[C@H](NC(=O)CC[C@H](NC(=O)CC[C@H](NC(=O)CCCCCCCCCCCCCCCCCCC(=O)O)C(=O)O)C(=O)O)C(=O)O)C(=O)O)C(=O)O)C(=O)O)C(=O)NC(C)(C)C(=O)N[C@H](C(=O)N[C@@H](CCCNC(=N)N)C(=O)N[C@@H](CCC(N)=O)C(=O)N[C@@H](CCCNC(=N)N)C(=O)N[C@@H](Cc1ccc(O)cc1)C(N)=O)[C@@H](C)O` [Compound 51, Y-Aib-E-G-T-F-T-S-D-L-S-I-Aib-L-E-K-Q-A-Q-Aib-A-F-V-R-H-L-I-N-K(1,3)-Aib-T-R-Q-R-Y-NH2.C20DA-gGlu-gGlu-gGlu-gGlu-gGlu-gGlu(1,2)], the EC50 at hGIPR (hGIPR 0.5% hP (nM)) was 0.5 nM. Further, the solubility at 2 h in series [1] is 9300 µg/mL.

On to `CC[C@H](C)[C@H](NC(=O)[C@H](CC(C)C)NC(=O)[C@H](Cc1c[nH]cn1)NC(=O)[C@H](CCCNC(=N)N)NC(=O)[C@@H](NC(=O)[C@H](Cc1ccccc1)NC(=O)[C@H](C)NC(=O)C(C)(C)NC(=O)[C@H](CCC(N)=O)NC(=O)[C@H](C)NC(=O)[C@H](CCC(N)=O)NC(=O)[C@H](CCCCN)NC(=O)[C@H](CCC(=O)O)NC(=O)[C@H](CC(C)C)NC(=O)C(C)(C)NC(=O)[C@@H](NC(=O)[C@H](CO)NC(=O)[C@H](Cc1ccc(O)cc1)NC(=O)[C@H](CC(=O)O)NC(=O)[C@H](CO)NC(=O)[C@@H](NC(=O)[C@H](Cc1ccccc1)NC(=O)[C@@H](NC(=O)CNC(=O)[C@H](CCC(=O)O)NC(=O)C(C)(C)NC(=O)[C@@H](N)Cc1ccc(O)cc1)[C@@H](C)O)[C@@H](C)O)[C@@H](C)CC)C(C)C)C(=O)N[C@@H](CC(N)=O)C(=O)N[C@@H](CCCCNC(=O)[C@@H](N)CCCCNC(=O)CC[C@H](NC(=O)CC[C@H](NC(=O)CC[C@H](NC(=O)CC[C@H](NC(=O)CC[C@H](NC(=O)CCCCCCCCCCCCCCCCCCC(=O)O)C(=O)O)C(=O)O)C(=O)O)C(=O)O)C(=O)O)C(=O)NC(C)(C)C(=O)N[C@H](C(=O)N[C@@H](CCCNC(=N)N)C(=O)N[C@@H](CCC(N)=O)C(=O)N[C@@H](CCCNC(=N)N)C(=O)N[C@@H](Cc1ccc(O)cc1)C(N)=O)[C@@H](C)O` [Compound 59, Y-Aib-E-G-T-F-T-S-D-Y-S-I-Aib-L-E-K-Q-A-Q-Aib-A-F-V-R-H-L-I-N-K(1,3)-Aib-T-R-Q-R-Y-NH2.C20DA-gGlu-gGlu-gGlu-gGlu-gGlu-eLys(1,2)], for which the EC50 on hGIPR (read-out: hGIPR 0.5% hP) worked out at 0.4 nM. Moreover, the solubility at 2 h in series [1] came out at 2100 µg/mL.

For the origin of these results see patent publication US20250382344A1, “Soluble GLP1/GIP/NPY2 Receptor Triple Agonists” (Boehringer Ingelheim International GmH, priority 2024, published 2025).
